24 compounds from patent US7964591B2, “Pyridazine derivatives and their use as therapeutic agents” (Novartis Pharma AG, priority 2003, dated 2011) can be followed below.

Structures are written as SMILES.

This data set addresses T1, stearoyl-CoA desaturase (SCD) (Mus musculus, UniProt P13516).
T1 sequence (P13516 1-355): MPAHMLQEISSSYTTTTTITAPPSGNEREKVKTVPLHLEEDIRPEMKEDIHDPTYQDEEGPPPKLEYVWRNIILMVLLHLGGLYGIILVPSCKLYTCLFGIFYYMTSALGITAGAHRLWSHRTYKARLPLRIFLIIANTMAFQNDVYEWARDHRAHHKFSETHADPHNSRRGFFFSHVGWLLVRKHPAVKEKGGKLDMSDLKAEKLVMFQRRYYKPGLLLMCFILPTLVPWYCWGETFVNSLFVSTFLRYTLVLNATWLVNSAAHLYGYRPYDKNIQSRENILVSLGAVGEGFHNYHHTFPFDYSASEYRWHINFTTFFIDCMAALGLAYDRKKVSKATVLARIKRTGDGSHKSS
The data set can be described thus: Stearoyl-CoA desaturase inhibition using mouse liver microsomes (HTS microsomal assay, IC50 follow-up). The following applies: % SCD enzyme activity remaining at 10 μM test compound. (Liver microsomes are a subcellular fraction often used to study metabolism.)
Method: Livers are immediately rinsed with cold 0.9% NaCl solution, weighed and minced with scissors. All procedures are performed at 4° C. unless specified otherwise. Livers are homogenized in a solution (1:3 w/v) containing 0.25 M sucrose, 62 mM potassium phosphate buffer (pH 7.0), 0.15 M KCl, 1.5 mM N-acetyleysteine, 5 mM MgCl2, and 0.1 mM EDTA using 4 strokes of a Potter-Elvehjem tissue homogenizer. The homogenate is centrifuged at 10,400×g for 20 min to eliminate mitochondria and cellular debris. The supernatant is filtered through a 3-layer cheesecloth and centrifuged at 105,000×g for 60 min. The microsomal pellet is gently resuspended in the same homogenization solution with a small glass/teflon homogenizer and stored at −70° C. The absence of mitochondrial contamination is enzymatically assessed. The protein concentration is measured using bovine serum albumin as the standard.
The tubes are vortexed vigorously and after 15 min incubation in a shaking water bath (37° C.), the reactions are stopped and fatty acids are analyzed.
Fatty acids are analyzed as follows: The reaction mixture is saponified with 10% KOH to obtain free fatty acids which are further methylated using BF3 in methanol. […] Fatty acid methyl esters are separated isocratically with acetonitrile/water (95:5 v:v) at a flow rate of 1 mL/min and are identified by comparison with authentic standards.
The compounds are analyzed with an HTS microsomal assay. The activities are defined in terms of % SCD enzyme activity remaining at the selected concentration (e.g., 10 μM) of the test compounds.
As to `O=C(NCCC1CC1)c1ccc(N2CCN(Cc3ccccc3C(F)(F)F)CC2)nn1` [6-[4-(2-TRIFLUOROMETHYLBENZYL)PIPERAZIN-1-YL]PYRIDAZINE-3-CARBOXYLIC ACID (2-CYCLOPROPYLETHYL)AMIDE], the “Mouse Microsome 10% remaining @ 10 μM” value is recorded as 12%.

Regarding `CCC(CC)C(=O)N1CCN(c2ccc(C(=O)NCCC3CC3)nn2)CC1` [6-[4-(2-ETHYLBUTYRYL)PIPERAZIN-1-YL]PYRIDAZINE-3-CARBOXYLIC ACID (2-CYCLOPROPYLETHYL)AMIDE], the “Mouse Microsome 10% remaining @ 10 μM” value was determined as 36%.

On to `CC(C)CCNC(=O)c1ccc(N2CCN(C(=O)C3(C(F)(F)F)CC3)CC2)nn1` [6-[4-(1-TRIFLUOROMETHYLCYCLOPROPANECARBONYL)PIPERAZIN-1-YL]-PYRIDAZINE-3-CARBOXYLIC ACID (3-METHYLBUTYL)AMIDE], for which the “Mouse Microsome 10% remaining @ 10 μM” value is reported as 26%. Then `COC(=O)C(CC(C)C)NC(=O)c1ccc(N2CCN(C(=O)c3ccccc3C(F)(F)F)CC2)nn1` (stereo not drawn) [4-METHYL-2-({6-[4-(2-TRIFLUOROMETHYLBENZOYL)PIPERAZIN-1-YL]-PYRIDAZINE-3-CARBONYL}AMINO)PENTANOIC ACID METHYL ESTER], with 69%; and `CC(C)CCNC(=O)c1ccc(N2CCN(C(=O)CCC(F)(F)F)CC2)nn1` [6-[4-(4,4,4-TRIFLUOROBUTYRYL)PIPERAZIN-1-YL]PYRIDAZINE-3-CARBOXYLIC ACID (3-METHYLBUTYL)AMIDE], with 42%; and `CC(C)CCNC(=O)c1ccc(N2CCN(C(=O)C(C)CC(F)(F)F)CC2)nn1` (stereo not drawn) [6-[4-(4,4,4-TRIFLUORO-2-METHYLBUTYRYL)PIPERAZIN-1-YL]PYRIDAZINE-3-CARBOXYLIC ACID (3-METHYLBUTYL)AMIDE], with 19%.

With `O=C(NCCCc1ccc(F)cc1)Nc1ccc(N2CCN(C(=O)c3ccccc3C(F)(F)F)CC2)nn1` [1-[3-(4-Fluorophenyl)propyl]-3-{6-[4-(2-trifluoromethylbenzoyl)piperazin-1-yl]pyridazin-3-yl}urea], the “Mouse Microsome 10% remaining @ 10 μM” value turned out to be 14%. As to `O=C(NCCC1CC1)c1ccc(N2CCN(C(=O)c3ccccn3)CC2)nn1` [6-[4-(PYRIDINE-2-CARBONYL)PIPERAZIN-1-YL]PYRIDAZINE-3-CARBOXYLIC ACID (2-CYCLOPROPYLETHYL)AMIDE], the “Mouse Microsome 10% remaining @ 10 μM” value was found to be 94%. Next, `CC(C)CCNC(=O)c1ccc(N2CCN(C(=O)OC(C)(C)C)CC2)nn1` [4-[6-(3-METHYLBUTYLCARAMOYL)PYRIDAZIN-3-YL]PIPERAZINE-1-CARBOXYLIC ACID T-BUTYL ESTER]: 11%. Then `O=C(NCCC1CC1)c1ccc(N2CCN(Cc3ccc(Cl)cc3Cl)CC2)nn1` [6-[4-(2,4-DICHLOROBENZYL)-PIPERAZIN-1-YL]PYRIDAZINE-3-CARBOXYLIC ACID (2-CYCLOPROPYLETHYL)AMIDE], with 8%; and `CC(=O)Oc1ccccc1C(=O)N1CCN(c2ccc(C(=O)NCCC3CC3)nn2)CC1` [ACETIC ACID 2-{4-[6-(2-CYCLOPROPYLETHYLCARAMOYL)PYRIDAZIN-3-YL]-PIPERAZINE-1-CARBONYL}PHENYL ESTER], with 46%; and `O=C(NCCC1CC1)c1ccc(N2CCN(C(=O)CC(O)(C(F)(F)F)C(F)(F)F)CC2)nn1` [6-[4-(4,4,4-TRIFLUORO-3-HYDROXY-3-TRIFLUOROMETHYLBUTYRYL)PIPERAZIN-1-YL]PYRIDAZINE-3-CARBOXYLIC ACID (2-CYCLOPROPYLETHYL)AMIDE], with 8%. Next, `O=C(NCCC1CC1)c1ccc(N2CCN(C(=O)c3cc(C(F)(F)F)ccc3C(F)(F)F)CC2)nn1` [6-[4-(2,5-BIS-TRIFLUOROMETHYLBENZOYL)PIPERAZIN-1-YL]PYRIDAZINE-3-CARBOXYLIC ACID (2-CYCLOPROPYLETHYL)AMIDE]: 6%; `O=C(NCCc1ccccc1)Nc1ccc(N2CCN(C(=O)c3ccccc3C(F)(F)F)CC2)nn1`: 15%. As for `CC(C(=O)N1CCN(c2ccc(C(=O)NCCC3CC3)nn2)CC1)(C(F)(F)F)C(F)(F)F` [6-[4-(3,3,3-TRIFLUORO-2-METHYL-2-TRIFLUOROMETHYLPROPIONYL)PIPERAZIN-1-YL]PYRIDAZINE-3-CARBOXYLIC ACID (2-CYCLOPROPYLETHYL)AMIDE], the “Mouse Microsome 10% remaining @ 10 μM” value amounted to 8%.

As for `O=C(NCCC1CC1)c1ccc(N2CCN(Cc3ccc(F)cc3C(F)(F)F)CC2)nn1` [6-[4-(4-FLUORO-2-TRIFLUOROMETHYLBENZYL)-PIPERAZIN-1-YL]PYRIDAZINE-3-CARBOXYLIC ACID (2-CYCLOPROPYLETHYL)AMIDE], the “Mouse Microsome 10% remaining @ 10 μM” value amounted to 12%.

As to `O=C(NCc1ccccc1)Nc1ccc(N2CCN(C(=O)c3ccccc3C(F)(F)F)CC2)nn1` [1-BENZYL-3-{6-[4-(2-TRIFLUOROMETHYLBENZOYL)PIPERAZIN-1-YL]PYRIDAZIN-3-YL}UREA], the “Mouse Microsome 10% remaining @ 10 μM” value is on record as 8%.

Consider `O=C(NCCC1CC1)c1ccc(N2CCN(C(=O)c3cc(Cl)ccc3C(F)(F)F)CC2)nn1` [6-[4-(5-CHLORO-2-TRIFLUOROMETHYLBENZOYL)PIPERAZIN-1-YL]PYRIDAZINE-3-CARBOXYLIC ACID (2-CYCLOPROPYLETHYL)AMIDE], for which the “Mouse Microsome 10% remaining @ 10 μM” value is 12%. Then `O=C(NCCc1ccccc1)c1ccc(N2CCN(C(=O)c3ccccc3C(F)(F)F)CC2)nn1` [6-[4-(2-Trifluoromethylbenzoyl)piperazin-1-yl]pyridazine-3-carboxylic acid phenethylamide], with 0%; and `O=C(NCCC1CC1)c1ccc(N2CCN(Cc3cc(Cl)ccc3Cl)CC2)nn1` [6-[4-(2,5-DICHLOROBENZYL)PIPERAZIN-1-YL]PYRIDAZINE-3-CARBOXYLIC ACID (2-CYCLOPROPYLETHYL)AMIDE], with 8%; and `O=C(NCCC1CC1)c1ccc(N2CCN(Cc3ccc(F)cc3Cl)CC2)nn1` [6-[4-(2-CHLORO-4-FLUOROBENZYL)PIPERAZIN-1-YL]PYRIDAZINE-3-CARBOXYLIC ACID (2-CYCLOPROPYLETHYL)AMIDE], with 11%. For the compound `CC(C)(C)OC(=O)N1CCN(c2ccc(C(=O)NCCC3CC3)nn2)CC1` [4-[6-(2-CYCLOPROPYLETHYLCARAMOYL)PYRIDAZIN-3-YL]PIPERAZINE-1-CARBOXYLIC ACID T-BUTYL ESTER], the “Mouse Microsome 10% remaining @ 10 μM” value is on record as 37%. With `O=C(NCCc1ccc(F)cc1F)c1ccc(N2CCN(C(=O)c3ccccc3C(F)(F)F)CC2)nn1` [6-[4-(2-TRIFLUOROMETHYLBENZOYL)PIPERAZIN-1-YL]PYRIDAZINE-3-CARBOXYLIC ACID [2-(2,4-DIFLUOROPHENYL)ETHYL]AMIDE], the “Mouse Microsome 10% remaining @ 10 μM” value is reported as 5%.

Regarding `CC(C)CCNC(=O)c1ccc(N2CCN(C(=O)c3cnccc3C(F)(F)F)CC2)nn1` [6-[4-(4-TRIFLUOROMETHYLPYRIDINE-3-CARBONYL)PIPERAZIN-1-YL]PYRIDAZINE-3-CARBOXYLIC ACID (3-METHYLBUTYL)AMIDE], the “Mouse Microsome 10% remaining @ 10 μM” value came to 8%.
